Active and inactive are the calls of the source. No cut-off for these calls is given here.
Assay: Inhibition of beta-secretase assessed as proteolytic cleavage of amyloid precursor protein

CN1C(=N)N(C)[C@@]2(Cc3c([nH]c4ccccc34)[C@]3(C(=O)N(C)C(=N)N3C)[C@@H]2c2c[nH]c3cc(Br)ccc23)C1=O
Activity: inactive

CN1C(=N)N(C)[C@@]2(Cc3c([nH]c4ccccc34)[C@]3(C(=O)N(C)C(=N)N3C)[C@@H]2c2c[nH]c3ccccc23)C1=O
Activity: inactive

— ChEMBL document CHEMBL1157511, “Dictazolines A and B, bisspiroimidazolidinones from the marine sponge Smenospongia cerebriformis” (J Nat Prod, 2008)
